{"source": "patent US9757324B2", "about": "“Emu oil in combination with other active ingredients for treating skin imperfections” (priority 2011, dated 2017)", "assay": "Histological examination of skin after topical application", "assay_type": "in vivo, volunteers", "method": "A study conducted with Emu Oil and doxycycline was undertaken in volunteers with mild to moderate acne. Sixteen volunteers participated who had mild to moderate acne, and one had severe cystic acne. Within 48 hours of application of the combination, the acne had disappeared. Only the volunteer with severe cystic acne had to apply the combination for five days for the acne to resolve. The efficacy was 100%. […] There are no tropical formulations of doxycycline to compare with. On histological examination, doxycycline was found in the dermis within 15 minutes of topical application."}
{"compound": "C[C@H]1c2cccc(O)c2C(=O)C2=C(O)[C@]3(O)C(=O)C(C(N)=O)=C(O)[C@@H](N(C)C)[C@@H]3[C@@H](O)[C@@H]21", "note": "[doxycycline]", "values": [{"measurement": "time after which doxycycline was found in the dermis", "result": "≤ 15", "unit": "min"}]}
